Values joined by “and” are separate entries in the source; they are usually repeats but may differ in a detail not shown here. Identical values can stand only once.
Tests used:
Plasmodium falciparum [1] = assay: Hit confirmation in dose-response curve in NF54 nanoGlo assay, at 72h; format: functional, organism-based, Erythrocyte; parameters: timepoint 72 hour; conditions: Plasmodium falciparum, NF54, Erythrocyte, 72 h
Plasmodium falciparum [2] = assay: Hit confirmation in dose-response curve in NF54 pLDH assay, at 72h; format: functional, organism-based, Erythrocyte; parameters: timepoint 72 hour; conditions: Plasmodium falciparum, NF54, Erythrocyte, 72 h
Plasmodium falciparum [3] = assay: Hit confirmation in dose-response curve in Dd2 pLDH assay, at 72h; format: functional, organism-based, Erythrocyte; parameters: timepoint 72 hour; conditions: Plasmodium falciparum, Dd2, Erythrocyte, 72 h
Plasmodium falciparum [4] = assay: Hit confirmation in dose-response curve in NF54 nanoGlo assay, at 12h; format: functional, organism-based, Erythrocyte; parameters: timepoint 12 hour; conditions: Plasmodium falciparum, NF54, Erythrocyte, 12 h
[5] = Hit confirmation in dose-response curve in HepG2 cytotoxicity assay, at 72h; format: toxicity, cell-based, Homo sapiens; parameters: timepoint 72 hour; conditions: human, HepG2 cells
Plasmodium falciparum [6] = assay: Re-testing in dose-response curve in 3D7 pLDH assay, at 72h; format: functional, organism-based, Erythrocyte; parameters: timepoint 72 hour
[7] = (§1) Re-testing in dose-response curve in HepG2 cytotoxicity assay, at 72h; format: toxicity, cell-based, Homo sapiens; parameters: timepoint 72 hour; conditions: human, HepG2 cells
HepG2 = assay: as §1; format: toxicity, cell-based, Homo sapiens; parameters: timepoint 72 hour; conditions: hepg2
Plasmodium falciparum [8] = assay: Re-testing in dose-response curve in Dd2 pLDH assay, at 72h; format: functional, organism-based, Erythrocyte; parameters: timepoint 72 hour
[9] = Plasmodium falciparum, 3D7, Erythrocyte, 72 h
[10] = Plasmodium falciparum, Dd2, Erythrocyte, 72 h

| SMILES | IC50 (Plasmodium falciparum [1]) [µM] | IC50 (Plasmodium falciparum [2]) [µM] | IC50 (Plasmodium falciparum [3]) [µM] | IC50 (Plasmodium falciparum [4]) [µM] | IC50 (Plasmodium falciparum [6]; [9]) [µM] | IC50 (Plasmodium falciparum [6]; erythrocyte) | IC50 (Plasmodium falciparum [8]; [10]) [µM] | IC50 (Plasmodium falciparum [8]; erythrocyte) | IC50 at 72 h [5] [µM] | IC50 at 72 h [7] [µM] | IC50 (HepG2) |
| --- | --- | --- | --- | --- | --- | --- | --- | --- | --- | --- | --- |
| CN1CCN(CCOc2ccccc2CN(C)Cc2cc3cc(F)ccc3[nH]2)CC1 | 4.07 | 6.17 | 5.62 | 6.92 |  |  |  |  | 10.2 |  |  |
| Cc1ccc2[nH]cc(-c3cc(N4CCOCC4)nc(N)n3)c2c1 | 5.62 | 7.59 | 7.08 | 9.77 |  |  |  |  | > 10 |  |  |
| CN(Cc1cn(CC(N)=O)c2ccccc12)CC1CCN(CCc2ccc(F)cc2)CC1 | 4.07 | 4.17 | 4.37 | 7.41 |  |  |  |  | > 10 |  |  |
| COCCN1CC[C@H](CNC2CCN(c3ncc4ccc(F)cc4n3)CC2)C1 | 3.09 | 4.57 | 4.07 | 5.62 |  |  |  |  | > 10 |  |  |
| CN(C[C@H](O)COc1cccc(CNCCCOc2cccnc2)c1)C1CCCCC1 | 5.13 | 6.17 | 6.92 | > 10 |  |  |  |  | > 10 |  |  |
| CN1CCC(Oc2ccc(NC(=O)c3cn4ccnc4s3)cn2)CC1 | 1.29 | 1.58 | 0.933 | 6.92 | 2.13 | 2.34 µM and 1.39 µM |  |  | > 10 | > 25 | 18.7 µM |
| FC(F)(F)c1ccc(N2CCC[C@H](NC3CCN(Cc4ccco4)CC3)C2)nc1 | 7.59 | 7.59 | 8.13 | > 10 |  |  |  |  | > 10 |  |  |
| COc1ccc(OC2CCN(C3CCCC3)CC2)c(C(=O)NCc2cccc3[nH]ccc23)c1 | 4.47 | 5.37 | 6.17 | > 10 |  |  |  |  | > 10 |  |  |
| CC1(N2CCC2)CCC(NC[C@H]2CCN(Cc3ccccc3)C2)CC1 (some centres not stated) | 3.24 | 2.63 | 1.82 | 9.12 |  | 1.63 µM and 0.618 µM and 0.631 µM | 1.58 | 1.78 µM and 1.6 µM | > 10 |  |  |
| CN1CCN(CCCCNC2CC3CCC(C2)N3Cc2ccccc2)CC1 (configuration not stated) | 3.02 | 3.02 | 1.83 | > 10 |  | 1.08 µM |  |  | > 10 |  | 22.8 µM and > 8.33 µM |
| O=C(CCc1nnc(-c2ccc(-c3ccccc3)cc2)o1)NC[C@@H]1CCCN2CCCC[C@H]12 | 4.07 | 5.13 | 6.46 | 8.51 |  |  |  |  | > 10 |  |  |
| CN(C[C@H](O)COc1ccccc1CN1CCC(c2ccncc2)CC1)C1CCCCC1 | 5.89 | 5.37 | 5.5 | > 10 |  |  |  |  | > 10 |  |  |

Continued by falling IC50 (Plasmodium falciparum [1]), values first:

| IC50 (Plasmodium falciparum [1]) [µM] | IC50 (Plasmodium falciparum [2]) [µM] | IC50 (Plasmodium falciparum [3]) [µM] | IC50 (Plasmodium falciparum [4]) [µM] | IC50 (Plasmodium falciparum [6]; [9]) [µM] | IC50 (Plasmodium falciparum [6]; erythrocyte) | IC50 (Plasmodium falciparum [8]; [10]) [µM] | IC50 (Plasmodium falciparum [8]; erythrocyte) | SMILES | IC50 at 72 h [5] [µM] | IC50 at 72 h [7] [µM] | IC50 (HepG2) |
| --- | --- | --- | --- | --- | --- | --- | --- | --- | --- | --- | --- |
| 3.02 | 3.98 | 3.89 | 7.76 |  |  |  |  | O[C@H](COc1ccccc1CNCc1cc(-c2ccccc2)[nH]n1)CN1CCCCC1 | > 10 |  |  |
| 2.09 | 2.63 | 1.99 | 3.24 | ~9.41 | 9.78 µM |  |  | c1ccc(CNc2ccc(-c3noc(C45CCCN(CCC4)C5)n3)cn2)cc1 | > 10 | 20.4 | 20.1 µM |
| 1.86 | 1.82 | 1.45 | 7.41 | 0.449 | 0.418 µM |  |  | c1ccc2c(CNCCC3CCN(c4ccncc4)CC3)csc2c1 | 12.3 | 4.25 | 5.07 µM |
| 1.7 | 1.38 | 1.38 | 2.95 |  |  | 2.3 | 3.11 µM | COc1ccc(-c2cncc(C(=O)NCC3CCN(CCN(C)C)CC3)c2)cc1 | > 10 |  |  |
| 1.7 | 1.95 |  | 2.63 |  | 1.65 µM and 1.32 µM and 1.38 µM |  |  | Cc1c(CN2CCC(O)(Cn3ccnc3)CC2)[nH]c2c(Cl)cccc12 | > 10 |  | 20.3 µM |
| 1.62 | 1.91 | 1.86 | 2.88 | 0.714 | 0.859 µM |  | 1.59 µM | c1ccc(-c2ccnc(C3CCN(CC45CNCC4C5)CC3)n2)cc1 (configuration not stated) | > 10 |  |  |
| 1.58 | 1.74 | 1.29 | 3.55 | 0.391 | ~0.385 µM |  |  | Fc1ccc(-n2cc(CNCCC3CCN(c4ccncc4)CC3)cn2)cc1 | > 10 | 5.11 | 5.84 µM |
| 1.41 | 1.2 | 1.23 | 2.45 | 0.68 | 0.75 µM and 0.903 µM |  |  | Cc1cnccc1N1CCCN(Cc2ccccc2OCCN2CCN(C)CC2)CC1 | > 10 |  |  |
| 1.35 | 2.34 | 1.7 | 1.74 | ~3.04 | 3.4 µM |  |  | Brc1ccc2[nH]c3c(c2c1)CCCC3NC1CCc2[nH]cnc2C1 (configuration not stated) | > 10 | 4.1 | 4.23 µM |
| 1.2 | 1.2 | 1.17 | 1.41 | 0.478 | ~0.748 µM |  |  | Cc1ccc(-c2cccc3c(C(=O)NCCCN4CCC(N5CCCCC5)CC4)cc(C)nc23)cc1 | 5.01 | 4.11 | 3.45 µM |
| 1.12 | 1.41 | 1.45 | 3.16 |  | 0.606 µM and 0.883 µM |  |  | O=C(NC1CCN(CCOc2ccc(Cl)cc2)CC1)c1c[nH]c2ccncc2c1=O | > 10 |  |  |
| 1.05 | 1.55 | 0.977 | 9.55 | 0.434 | 0.501 µM |  |  | Cc1cnccc1NCCNCc1ccc(OC(C)C)c(Cl)c1 | > 10 | 6.65 | 6.94 µM |
| 0.955 | 1.38 | 0.955 | 1.55 | 0.621 | 0.597 µM | 1.19 | 1.23 µM | Cc1ccc(-c2cc(C(=O)NC3CCN(C4CCN(C)CC4)CC3)n[nH]2)cc1C | 7.76 | 5.93 | 7.03 µM |
| 0.933 | 1 | 0.741 | 1.29 | > 25 |  |  |  | CCN1C[C@H](Nc2nc(C)nc3sccc23)[C@@H](OC)C1 | > 10 | > 25 |  |
| 0.832 | 1.7 | 1.41 | 1.82 |  |  |  |  | c1ccc2c(Nc3ccc4[nH]cnc4c3)c3ccccc3nc2c1 | > 10 |  |  |
| 0.812 | 1.32 | 0.708 | > 10 | > 8.33 | 14.8 µM and 12.7 µM and 15.9 µM |  |  | CN(C)C1CCN(CCN[C@H]2CCc3ccc(F)cc32)CC1 | > 10 | > 25 |  |
| 0.759 | 1.48 | 0.871 | > 10 | 0.0829 | 0.0908 µM |  |  | COc1ccc2c(O)c(Br)c(C)nc2c1 | > 10 | 21.6 | 21.9 µM |

Reference: ChEMBL document CHEMBL5308541, “MAIP: An Open-Source Tool to Enrich High-Throughput Screening Output and Identify Novel, Druglike Molecules with Antimalarial Activity” (ACS Med Chem Lett, 2023)
